What follows are compounds tested on MDA-MB-231 cells (assay: Cell proliferation of MDA-MB-231 cells with inhibitors that induce cell-cycle arrest, 3 days of culture). Conditions: absence of S. horneri active component, butyrate 10 and 100 μM, roscovitine 10 and 100 nM, sulforaphane 1 and 10 nM, FIG. 2(A).
Assay type: cell-based, human
Procedure: Cells were detached from each culture dishes using 0.2% trpysin plus 0.02% EDTA in Ca^2+/Mg^2+-free PBS for 2 min at 37° C., cells were collected after centrifugation. Cells were resuspended on PBS solution and stained with eosin. Cell numbers were counted under a microscope using a Hemocytometer plate. For each dish, we took the average of two countings.
Data are expressed as the mean±standard deviation (SD). Statistical significance was determined using GraphPad InStat version 3 for Windows XP (GraphPad Software Inc. La Jolla, Calif.). Multiple comparisons were performed by one-way analysis of variance (ANOVA) with Tukey-Kramer multiple comparisons post-test for parametric data as indicated. Data indicated P<0.05 was considered statistically significant.
Breast cancer MDA-MB-231 cells (1×10^5/ml per well) were cultured in a 24-well plate in DMEM containing 10% FBS and 1% P/S for 3 days in the presence or absence of S. horneri active component (50 μg/ml) with or without sodium butyrate (10 and 100 μM), roscovitine (10 and 100 nM) or sulforaphane (1 and 10 nM). Upon completion of culture, the cells were detached from wells, and the number of cells was counted and statistical processing was performed in accordance with the methods described in 2-1-2 and 2-1-3.
For `CCCC(=O)[O-].[Na+]` [butyrate, sodium butyrate], the “proliferation of MDA-MB-231 cells in the presence of the inhibitor alone” value (shortened to “proliferation … of the inhibitor alone”) was “suppressed”.
`CC[C@H](CO)Nc1nc(NCc2ccccc2)c2ncn(C(C)C)c2n1` [roscovitine] was tested, and the “proliferation … of the inhibitor alone” value was “suppressed”.
With `C[S+]([O-])CCCCN=C=S` (stereo not drawn) [sulforaphane] the “proliferation … of the inhibitor alone” value was “suppressed”.

Reference: patent US20170246228A1, “METHOD FOR SUPPRESSING PROLIFERATION AND/OR INDUCING APOPTOSIS OF CANCER CELLS” (Maruhachi Muramatsu, Inc., priority 2016, published 2017)
